How the values were obtained:
Format in all cases: cell-based
SIRT6-depleted cells = experiment: Phospho-H2A.X staining in shSIRT6 cells with KPT-9274; conditions: SIRT6-depleted cells compared with scrambled control, in the presence of KPT-9274
Method: (§1) Thereafter, cells were fixed, permeabilized and stained with BV421 mouse anti-H2A.X (pS139) (Clone N1-431). Stained cells were analyzed by flow cytometry. Results are shown as mean±SEM of duplicates. *p<0.05. N.S.: not significant. […] Results are shown as mean±SEM of duplicates. *p<0.05. […] MOLM13 cells were treated with vehicle control, 0.4 μM or 0.8 μM AR-42 alone, 0.1 μM or 0.25 μM KPT-2974 alone and drug combination for 24 hours before being subject to Western blotting analysis of HR, NHEJ and ATM markers. GAPDH served as loading control. Results are representative of two independent experiments. In the FIG. the treatment concentrations, protein detected in the given Western blot, and molecular weight of the protein detected are as shown in the figure. […] Scrambled or shHDAC8-transduced MOLM13 cells were treated with vehicle, 0.1 μM or 0.25 μM KPT-2974 before being subject to immunoblotting analysis of DNA repair targets. GAPDH serves as loading control. Results are representative of two independent experiments. In the FIG. the treatment concentrations, protein detected in the given Western blot, and molecular weight of the protein detected are as shown in the figure. […] PAPR1 was immunoprecipitated and mono-ADP-ribosylation was detected by western blotting. […]
(§2) To elucidate the mechanism of the synergism between shSIRT6 and KPT-9274, the accumulation of phosph-H2A.X was measured. […]

PARP1 = experiment: co-IP and western blotting of PARP1 mono-ADP-ribosylation; conditions: eradicated by knockdown of SIRT6
Method: as §1, §2

Kasumi-1 cells = experiment: MTS cell viability of shRNA-stable Kasumi-1 cells treated with KPT-9274; conditions: Kasumi-1 scrambled control, 24 hour KPT-9274 treatment
Source text: FIGS. 2A-2M show show representative data for genetic depletion of HDAC8 or SIRT6 increases vulnerability of AML cell lines to KPT-9274 treatment. FIGS. 2A-2D show data for knockout efficiency of CDS- and 3′UTR-targeting shRNAs in MOLM13 and Kasumi-1 cells as assessed with Western blotting (FIGS. 2A, 2D) with GAPDH as a loading control. Densitometric quantification of protein band intensity is shown (n=2) in FIGS. 2B, 2E. FIGS. 2E-2H show representative data for depletion of HDAC8 or SIRT6 (as indicated in graphs) and sensitization of AML cell lines to KPT-9274 treatment. Dose-response curves of shRNA-stable MOLM13 and Kasumi-1 cells for 24-hour and 48-hour treatments are plotted. Cell viability was measured with MTS. […] Scrambled or gene-targeting shRNA-stable MOLM13 or Kasumi-1 cells were treated with IC20 dose of KPT-9274 for 48 hour and stained with Annexin/PI for flow cytometry analysis. Data are shown as mean±SEM of % population from duplicates. […] Quantification of the number of colonies formed by shRNA-stable Kasumi-1 and MOLM13 cells in the presence or absence of KPT-9274 in CFU assays. Indicated number of cells were seeded into Methocult and colonies were counted and replated by a double-blind approach after 7 days. […]
MTS assay. […] Plates were read by using a BioTek synergy H4 hybrid multimode microplate reader (Thermo Fisher Scientific) at 490 nM. […]

Nc1ccc(/C=C/C(=O)NCc2cc3cc(-c4ccc(C(=O)N5CCC(F)(F)CC5)cc4)cc(-c4ccc(F)cc4)c3o2)cn1 [KPT-9274, (E)-3-(6-aminopyridin-3-yl)-N-[[5-[4-(4,4-difluoropiperidine-1-carbonyl)phenyl]-7-(4-fluorophenyl)-1-benzofuran-2-yl]methyl]prop-2-enamide]
DNA damage, phospho-H2A.X staining (SIRT6-depleted cells): increased phospho-H2A.X staining
mono-ADP-ribosylation of PARP1 (PARP1): enhanced
IC50 (Kasumi-1 cells): did not achieve IC50
